Patent US10927100B2, “Degradable imidazolium oligomer and polymer for antimicrobial applications” (AGENCY FOR SCIENCE, TECHNOLOGY AND RESEARCH, priority 2017, dated 2021)
Values after ≈ are worked out from the molar mass of the structure shown. Read-outs that look alike come from different tables or passages of the source.

Tests used:
[1] = test system: Staphylococcus aureus (ATCC 6538, Gram-positive); assay: Minimum inhibitory concentration, microdilution assay; format: cell-based
Description: (§1) Staphylococcus aureus (ATCC 6538, Gram-positive), Escherichia coli (ATCC 8739, Gram-negative), Pseudomonas aeruginosa (Gram-negative), and Candida albicans (ATCC 10231, fungus) were used as representative microorganisms to challenge the antimicrobial functions of the imidazolium salts. All bacteria and fungus were stored frozen at −80° C., and were grown overnight at 37° C. in Mueller Hinton Broth (MHB) prior to experiments. Fungus was grown overnight at 22° C. in Yeast Mold (YM) broth. […] The plates were incubated at 37° C. for 24 hours with constant shaking speed at 300 rpm. […] PBS solution containing microbial cells alone were used as negative controls. The assay was performed in four replicates and the experiments were repeated at least two times.

[2] = test system: Pseudomonas aeruginosa (Gram-negative); assay: as above; format: cell-based; details: for MIC: Pseudomonas aeruginosa
Description: as §1

[3] = test system: Candida albicans (ATCC 10231, fungus); assay: as above; format: cell-based; details: for MIC: Candida albicans, ATCC10231
Description: as §1

[4] = test system: Escherichia coli (ATCC 8739, Gram-negative); assay: as above; format: cell-based; details: for MIC: Escherichia coli, ATCC8739
Description: as §1

rat red blood cells = assay: Haemolysis; format: cell-based
Description: Fresh rat red blood cells (RBCs) were diluted with PBS buffer to give an RBC stock suspension (4 vol % blood cells). A 100 μL aliquot of RBC suspension was added into a 96-well plate containing 100 μL oligomer solutions of various concentrations (ranging from 4 mg mL^−1 to 2 μg mL^−1 in serial two-fold dilutions in PBS). After 1 hour incubation at 37° C., the contents of each well were pipetted into a micro-centrifuge tube and centrifuged at 2000 rpm for 5 minutes. Aliquots (100 μL) of the supernatant were transferred to a new 96-well plate. Haemolytic activity was determined as a function of haemoglobin release by measuring OD576 of 100 μL of the supernatant using a microplate reader (TECAN). A control solution that contained only PBS was used as a reference for 0% haemolysis. Absorbance of red blood cells lysed with 0.5% Triton-X was taken as 100% haemolysis. The data were expressed as mean and S.D. of four replicates, and the tests were repeated two times.

S. aureus [5] = assay: Resistance studies, serial passage at sub-MIC; format: cell-based, Staphylococcus aureus; details: for resistance to polymers IBN-CP1 or IBN-CP3 after growth with degradation product: media containing 2, 8, 16 and 100 μg/ml over one month
Description: The method was adapted from that of Yang and co-authors with modification [K. Fukushima, S. Liu, H. Wu, A. C. Engler, D. J. Coady, H. Maune, J. Pitera, A. Nelson, N. Wiradharma, S. Venkataraman, Y. Huang, W. Fan, J. Y. Ying, Y. Y. Yang, J. L. Hedrick. Nature Comm, 2013, 4:2861]. Drug resistance was induced by treating S. aureus repeatedly with degradable oligomers. First MICs of the tested oligomers were determined against S. aureus using the broth microdilution method. Then serial passaging was initiated by transferring bacterial suspension grown at the sub-MIC of the oligomers (½ of MIC at that passage) and was subjected to another MIC assay. After 24 hours incubation period, cells grown at the sub-MIC of the test compounds/antibiotics were once again transferred and assayed for MIC. The MIC against S. aureus was tested for 16 passages.
Drug-resistant behaviour of S. aureus was evaluated by recording the changes in the MIC normalized to that of the first passage. Conventional antibiotics vancomycin was used as the control.

E. coli = assay: Agar well diffusion assay; format: cell-based, Escherichia coli
Description: (§2) The degradable oligomers were dissolved in ethanol and glycerol at 0.5% w/v concentration. Agar plates were inoculated with bacteria and 6 mm wells were cut, into which 20 μL of solution was added. Plates were inoculated at 37° C. for 24 hours and zone of inhibitions measured using a pair of vernier calipers.

S. aureus [6] = assay: Agar well diffusion assay; format: cell-based, Staphylococcus aureus
Description: as §2

P. aeruginosa = assay: Agar well diffusion assay; format: cell-based, Pseudomonas aeruginosa
Description: as §2

[7] = Critical gelation concentration in alcohols; format: physicochemical
Description: Gels were prepared by weighing the imidazolium oligomers directly into 4 mL glass vials and subsequently adding a known weight or volume of the solvent. The vials containing both the imidazolium and the solvent were either heated or sonicated to aid the dissolution process. The vials were left standing over night at ambient conditions. The gel state was evaluated by the stable-to-inversion-of-a-test-tube method. The critical gelation concentration (CGC) is defined as the lowest concentration of the gelator which leads to a stable gel.

E. coli and S. aureus = assay: SEM observation of bacteria treated with oligomers; format: cell-based; details: 4MIC, exposure two minutes
Description: Bacterial cells (3×10^8 CFU/mL) grown in MHB without or with the oligomers at 4MIC for 2 minutes were collected and centrifuged at 5000 rpm for 5 minutes. The precipitates were washed twice with PBS buffer. Then the samples were fixed with glutaraldehyde (2.5%) for 2 hours followed by washing with DI water. Dehydration of the samples was performed using a series of ethanol/water solution (35%, 50%, 75%, 90%, 95% and 100%). The dehydrated samples were mounted on copper tape. After drying for 2 days, the samples were further coated with platinum for imaging with JEOL JSM-7400F (Japan) field emission scanning electron microscope operated at an accelerating voltage of 5 keV.

[8] = Oligomer and polymer degradation by 1H NMR spectroscopy; format: physicochemical; details: pH 6-8 buffered solutions, ambient conditions
Description: Sorenson's phosphate buffer (pH, 6.0, 7.0, 8.0), tris buffer (pH 6.0, 7.0, 8.0) and sodium citrate-citric acid buffer (pH 3.0, 4.0, 5.0) were prepared in deionized water at concentrations of 100 mM, as well as 10 mM for tris buffer solution. […] A 4 mg sample of imidazolium oligomer or polymer was dissolved in deuterated buffer solution with care taken to ensure complete solution of the compounds. […] Degradation of the carbonate and ester-linked compounds was observed by disappearance of the signal of the methylene protons adjacent to the carbonate or ester functional group, and/or appearance of the signal of the methylene protons adjacent to the hydroxyl group in the degradation product.

[9] = rat red blood cells, 1 hour, 37° C.
[10] = Staphylococcus aureus, ATCC6538; read-out: MIC S. aureus
[11] = 0.5% w/v solution in glycerol, compared with ethanol solution

| SMILES | MIC S. aureus [1] [µg/mL] | MIC P. aeruginosa [2] [µg/mL] | MIC C. albicans [3] [µg/mL] | MIC E. coli [4] [µg/mL] | HC10 (rat red blood cells; [9]) [µg/mL] | further results |
| --- | --- | --- | --- | --- | --- | --- |
| CCCCCCCCn1cc[n+](Cc2ccc(Cn3cc[n+](Cc4ccc(C[n+]5ccn(Cc6ccc(CN)cc6)c5)cc4)c3)cc2)c1.[Br-].[Br-].[Br-] [F1-CH2NH2] | 125 | 250 | 62 | 16 | 1000 |  |
| CCCCCCCCn1cc[n+](Cc2ccc(Cn3cc[n+](Cc4ccc(C[n+]5ccn(Cc6ccc(CO)cc6)c5)cc4)c3)cc2)c1.[Br-].[Br-].[Br-] [F1-CH2OH] | >2000 | 2000 | 250 | 2000 | >2000 | hemolysis at highest concentration (rat red blood cells; 2000 μg/ml): did not induce hemolysis |
| CCCCCCCCn1cc[n+](Cc2ccc(Cn3cc[n+](Cc4ccc(C[n+]5ccn(Cc6ccc(C(=O)O)cc6)c5)cc4)c3)cc2)c1.[Br-].[Br-].[Br-] [F1-COOH] | 62 | >2000 | 500 | 31 |  |  |
| OCc1ccc(Cn2cc[n+](C/C=C/Cn3cc[n+](Cc4ccc(CO)cc4)c3)c2)cc1 [F-diol1] |  |  |  |  | >2000 | resistance to polymers IBN-CP1 or IBN-CP3 after growth with degradation product (S. aureus [5]): did not develop resistance; MIC [1, 10]: 125 µg/mL; MIC ([1]; Staphylococcus aureus, ATCC6538; read-out: MIC SA): 12 µg/mL; MIC ([2]; read-out: MIC P. aeruginosa): 2000 µg/mL; MIC ([2]; read-out: MIC PA): 2000 µg/mL; MIC ([3]; read-out: MIC C. albicans): > 2000 µg/mL; MIC ([3]; read-out: MIC CA): > 2000 µg/mL; MIC ([4]; read-out: MIC E. coli): > 2000 µg/mL; MIC ([4]; read-out: MIC EC): > 2000 µg/mL; HC10 (rat red blood cells): >2000 ppm |
| OCc1ccc(Cn2cc[n+](Cc3ccc(C[n+]4ccn(Cc5ccc(CO)cc5)c4)cc3)c2)cc1.[Br-].[Br-] [F-diol2] | 2000 | >2000 | >2000 | >2000 | >2000 |  |
| OCc1ccc(Cn2cc[n+](Cc3ccccc3Cn3cc[n+](Cc4ccc(CO)cc4)c3)c2)cc1 [F-diol3] |  |  |  |  | >2000 | resistance to polymers IBN-CP1 or IBN-CP3 after growth with degradation product (S. aureus [5]): did not develop resistance; MIC [1, 10]: 500 µg/mL; MIC ([2]; read-out: MIC P. aeruginosa): > 4000 µg/mL; MIC ([3]; read-out: MIC C. albicans): > 2000 µg/mL; MIC ([4]; read-out: MIC E. coli): > 2000 µg/mL |
| OCc1ccccc1Cn1cc[n+](C/C=C/C[n+]2ccn(Cc3ccccc3CO)c2)c1.[Br-].[Br-] [F-diol4] | 250 | >2000 | >2000 | 1000 |  |  |
| OCc1ccccc1Cn1cc[n+](Cc2ccccc2C[n+]2ccn(Cc3ccccc3CO)c2)c1.[Br-].[Br-] [F-diol5] | 125 | >2000 | >2000 | 250 | >2000 |  |
| CCCCCCCCn1cc[n+](Cc2ccc(Cn3cc[n+](Cc4ccc(C[n+]5ccn(Cc6ccc(OCn7cc[n+](Cc8ccc(Cn9cc[n+](Cc%10ccc(Cn%11cc[n+](CCCCCCCC)c%11)cc%10)c9)cc8)c7)cc6)c5)cc4)c3)cc2)c1.[Br-].[Br-].[Br-].[Br-].[Br-].[Br-] [IBN-HC8] | 16 | 125 | 125 | 8 | >2000 | passage at which MIC increase was observed (S. aureus [5]; sub-MIC levels, 16 passages): 8 passage; zone of inhibition (E. coli; 0.5% w/v in ethanol): larger zones of inhibition than ethanol on its own; zone of inhibition (E. coli; [11]): comparable efficacy; zone of inhibition (S. aureus [6]; 0.5% w/v in ethanol): larger zones of inhibition than ethanol on its own; zone of inhibition (S. aureus [6]; [11]): comparable efficacy; zone of inhibition (P. aeruginosa; 0.5% w/v in ethanol): comparable zones of inhibition compared to ethanol; zone of inhibition (P. aeruginosa; [11]): comparable efficacy; Critical gelation concentration ([7]; ethanol): 1.5 wt %; Critical gelation concentration ([7]; n-butanol): 1.0 wt %; Critical gelation concentration ([7]; n-propanol): 0.5 wt %; bacterial cell walls in SEM images (E. coli and S. aureus): disrupted and subsequently dissolved; degradation in buffered solutions [8]: not significantly degraded |
| CN[C@H](CC(C)C)C(=O)N[C@H]1C(=O)N[C@@H](CC(N)=O)C(=O)N[C@H]2C(=O)N[C@H]3C(=O)N[C@H](C(=O)N[C@H](C(=O)O)c4cc(O)cc(O)c4-c4cc3ccc4O)[C@H](O)c3ccc(c(Cl)c3)Oc3cc2cc(c3O[C@@H]2O[C@H](CO)[C@@H](O)[C@H](O)[C@H]2O[C@H]2C[C@](C)(N)[C@H](O)[C@H](C)O2)Oc2ccc(cc2Cl)[C@H]1O [Vancomycin, reference compound] |  |  |  |  | >2000 | change of MIC value over serial passages (S. aureus [5]; sub-MIC levels, 16 passages): quadrupled; passage at which MIC increase was observed (S. aureus [5]; sub-MIC levels, 16 passages): 5 passage; MIC ([1]; Staphylococcus aureus, ATCC6538, read-out: MIC S. aureus): 2 µg/mL (≈ 1.38 µM) |
| CCn1cc(C(=O)O)c(=O)c2cc(F)c(N3CCNCC3)cc21 [norfloxacin, reference compound] |  |  |  |  |  | MIC value relative to its original value (S. aureus [5]; by the 15th passage): over 120 times |
